In patent US10407712B2, “Methods, compositions and kits for high throughput kinase activity screening using mass spectrometry and stable isotopes” (President and Fellows of Harvard College, priority 2008, dated 2019):

Assays:
activated, purified Akt = target: T1, activated, purified Akt (Homo sapiens, UniProt P31749); assay: In vitro peptide phosphorylation by purified Akt; type: biochemical; conditions: control, 2 ng purified kinase
T1 construct: Purified human active kinases of Akt1 (full length); purchased Cell Signaling Technology (Danvers, Mass.)
T1 sequence (P31749 whole entry): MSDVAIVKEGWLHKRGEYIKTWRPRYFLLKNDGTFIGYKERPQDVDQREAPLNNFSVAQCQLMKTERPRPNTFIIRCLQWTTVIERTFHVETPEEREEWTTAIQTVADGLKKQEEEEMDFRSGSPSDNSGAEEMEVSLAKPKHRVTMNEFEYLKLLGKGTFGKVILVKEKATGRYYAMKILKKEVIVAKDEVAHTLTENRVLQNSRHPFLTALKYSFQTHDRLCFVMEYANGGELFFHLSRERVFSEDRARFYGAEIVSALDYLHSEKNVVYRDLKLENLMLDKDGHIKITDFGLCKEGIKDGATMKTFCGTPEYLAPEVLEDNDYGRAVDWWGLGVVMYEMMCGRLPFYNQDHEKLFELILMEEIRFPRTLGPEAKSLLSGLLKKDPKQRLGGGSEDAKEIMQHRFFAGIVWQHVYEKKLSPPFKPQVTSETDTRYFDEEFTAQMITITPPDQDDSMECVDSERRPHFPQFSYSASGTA
Text: (§1) Reaction mixture was supplemented with 0.1% BSA. Other conditions were the same as in FIG. 10A.
(§2) Purified human active kinases of Akt1 (full length), extracellular signal-regulated kinase 1 (ERK1, 1-379), mitogen-activated protein kinase kinase 1 (MEK1, 1-393), 90 kDa ribosomal S6 kinases 1 (RSK1, 1-735), cAMP-dependent protein kinase (PKA) catalytic subunit-α (PKA Cα, 1-351), protein kinase Cα (PKCα, full length), epidermal growth factor (EGF) receptor (EGFR, 672-1210), platelet-derived growth factor (PDGF) receptor α (PDGFRα, 550-1090), vascular endothelial growth factor (VEGF) receptor 1 (VEGFR1 784-1338), Src (full length), casein kinase 2 (CK2, full length), Aurora A (1-403), AMP-activated protein kinase α1β1γ1 (AMPK α1β1γ1, full length), glycogen synthase kinase-3α (GSK-3α, 1-483) and MAP/microtubule affinity-regulating kinase 1 (MARK 1, full length) were obtained from Cell Signaling Technology (Danvers, Mass.). Cdc2/cyclin B1 (full length) and insulin-like growth factor (IGF)-I receptor (IGFIR, 959-1367) were obtained from Upstate (Temecula, Calif.).
Peptides were synthesized, purified and quantified as described in Yu et al. 2009 Proc Natl Acad Sci USA 106: 11606-11611, hereby incorporated by reference herein in its entirety. […] Alternatively, reactions were performed using 6 μg cell lysate aliquotes mixed to a final volume of 20 μl. […]

recombinant RSK1 = target: T2, recombinant RSK1 (Homo sapiens, UniProt Q15418); assay: In vitro peptide phosphorylation by purified RSK; type: biochemical
T2 construct: 90 kDa ribosomal S6 kinases 1 (RSK1, 1-735); purchased Cell Signaling Technology (Danvers, Mass.)
T2 sequence (Q15418 whole entry): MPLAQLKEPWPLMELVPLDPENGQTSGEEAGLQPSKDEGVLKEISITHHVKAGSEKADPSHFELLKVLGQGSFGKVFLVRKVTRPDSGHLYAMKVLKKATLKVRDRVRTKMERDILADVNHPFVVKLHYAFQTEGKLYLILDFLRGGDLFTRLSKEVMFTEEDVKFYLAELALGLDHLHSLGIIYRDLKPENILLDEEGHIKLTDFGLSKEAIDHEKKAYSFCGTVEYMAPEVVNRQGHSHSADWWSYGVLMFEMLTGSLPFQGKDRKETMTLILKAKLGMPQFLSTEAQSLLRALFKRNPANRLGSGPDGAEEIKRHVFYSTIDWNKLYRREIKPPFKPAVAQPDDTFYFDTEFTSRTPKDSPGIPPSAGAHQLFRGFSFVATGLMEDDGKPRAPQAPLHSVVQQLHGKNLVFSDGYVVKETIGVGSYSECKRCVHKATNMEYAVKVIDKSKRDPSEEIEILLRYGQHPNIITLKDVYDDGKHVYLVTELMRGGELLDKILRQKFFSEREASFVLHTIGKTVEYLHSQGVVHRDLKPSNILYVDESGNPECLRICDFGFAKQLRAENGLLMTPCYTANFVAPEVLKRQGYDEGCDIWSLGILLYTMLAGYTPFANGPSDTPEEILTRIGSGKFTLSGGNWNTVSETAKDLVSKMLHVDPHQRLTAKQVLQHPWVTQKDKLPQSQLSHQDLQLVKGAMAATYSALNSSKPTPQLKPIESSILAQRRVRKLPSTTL
Text: as §1, §2
Peptides were synthesized, purified and quantified as described in Yu et al. 2009 Proc Natl Acad Sci USA 106: 11606-11611, hereby incorporated by reference herein in its entirety. […] Alternatively, reactions were performed using 6 μg cell lysate aliquotes mixed to a final volume of 20 μl. Cell lysate or other kinase source was added to the substrate mixture in 25 mM Tris-Cl, pH 7.5, containing 5 mM ATP, 7.5 mM MgCl2, 0.2 mM EGTA, 7.5 mM β-glycerophosphate, 0.1 mM Na3VO4, and 0.1 mM DTT. The reaction was incubated at 25° C. for 60 min and then terminated by the addition of 100 μl of 1% trifluoroacetic acid (TFA) containing a known amount of an internal standard (typically 20 pmol). Alternatively, the reaction was incubated at 20° C. for 45 min before termination with TFA.
(§3) It was observed that basal phosphorylation of these peptides was not affected by knockdown and likely was the result of remaining RSK isoforms or other basophilic kinases (FIG. 5C).

HEK293 cell lysates [1] = assay: KAYAK in vitro kinase assay, individual reactions, lysates of starved, insulin- or EGF-stimulated HEK293 cells; type: biochemical, human; conditions: for E: changed phosphorylation in EGF stimulated condition: EGF-stimulated compared to starved HEK293 cells; for increase in phosphorylation after EGF: EGF-stimulated vs serum-starved HEK293 lysate; for increase in phosphorylation after insulin: insulin-stimulated vs serum-starved HEK293 lysate
Procedure: (§4) For stimulation of HEK293 cells or HeLa lines, cells were treated with insulin (100 nM; 10-30 min) EGF (50 ng/ml; 10 min) or phorbol 12-myristate 13-acetate (PMA; 50 or 100 ng/ml; 10 -30 min) at 37° C. for the indicated times after overnight serum-starvation.
(§5) For cell lysis, the media were removed, and cells were washed with ice-cold phosphate-buffered saline (PBS) and lysed with ice-cold lysis buffer (10 mM K2HPO4 pH 7.5, 1 mM EDTA, 10 mM MgCl2, 50 mM β-glycerophosphate, 5 mM EGTA, 0.5% Nonidet P-40, 0.1% Brij 35, 0.1% deoxycholic acid, 1mM sodium orthovanadate, 1mM phenylmethyl-sulfonyl fluoride, 5 μg/ml leupeptin and 5 μg/ml pepstatin A). Lysates were centrifuged at 10,000 rpm for 10 min to remove cell debris, and clear supernatant was used for immunoblotting and in vitro kinase assays. Protein concentration was determined by Bradford assay (Biorad, Hercules, Calif.).
(§6) Peptides were synthesized, purified and quantified as described in Yu et al. 2009 Proc Natl Acad Sci USA 106: 11606-11611, hereby incorporated by reference herein in its entirety. Each substrate peptide (250 pmol) was mixed to a final concentration of 5 μM in the 50 μL reaction mixture. Alternatively, reactions were performed using 6 μg cell lysate aliquotes mixed to a final volume of 20 μl. Cell lysate or other kinase source was added to the substrate mixture in 25 mM Tris-Cl, pH 7.5, containing 5 mM ATP, 7.5 mM MgCl2, 0.2 mM EGTA, 7.5 mM β-glycerophosphate, 0.1 mM Na3VO4, and 0.1 mM DTT. The reaction was incubated at 25° C. for 60 min and then terminated by the addition of 100 μl of 1% trifluoroacetic acid (TFA) containing a known amount of an internal standard (typically 20 pmol). Alternatively, the reaction was incubated at 20° C. for 45 min before termination with TFA.
(§7) Forty-five individual in vitro kinase reaction mixtures were combined and desalted by using Sep-Pak C18 cartridge (Waters, Milford, Mass.). Phosphopeptides were enriched by immobilized metal ion chromatography (IMAC) with 20 μl of beads (Phos-Select iron affinity gel; Sigma, St. Louis, Mo.) and subsequently desalted by using Empore C18 solid phase extraction disks (3M, St. Paul, Minn.) as described previously.
(§8) Quantitation of the target peptide-internal standard ratios was performed by first constructing the extracted ion chromatogram for the most abundant charge state for each peptide using a ±10 ppm window. Chromatograms were integrated using Qual/Quan browser (Xcalibur 2.0.5, Thermo Fisher, San Jose, Calif.). Since the phosphorylated peptides generated from the in vitro kinase reactions were chemically identical to the internal standards, they were assumed to have the same ionization efficiency. Therefore, the amount of each phosphorylated peptide was calculated by direct ratio to the internal standard level.
(§9) To test substrate suitability in a multiplexed assay, the phosphorylation activities were measured using […] of each substrate peptide, 6 μg lysate, and 5 mM ATP in a plate format. Reactions proceeded for 60 minutes followed by acidification and the addition of isotope-labeled reference peptides. After pooling 45 samples, phosphopeptide enrichment was followed by liquid-chromatography (LC) separation and on-line peptide detection by high-resolution mass spectrometry.
The ability of the peptides to report specific changes in kinase activation after pathway stimulation was examined herein. Lysates from HEK293 cells were collected after insulin or EGF treatment and were compared to their activities in the serum-starved state using the KAYAK approach. Western blot analysis of lysates from cells in which the PI3K and MAPK pathways were activated, as indicated by elevated phospho-Akt and phospho-ERK1/2 levels, respectively, is shown in FIG. 1D. […]

HeLa cell lysates = assay: KAYAK in vitro kinase assay, lysates of asynchronous, G1/S- or G2/M-arrested HeLa cells; type: biochemical, human; conditions: G2/M phase compared to asynchronously growing HeLa cells
Procedure: For cell cycle examples, HeLa cells were synchronized by double thymidine block for G1/S-arrest and by 0.2 μg/ml nocodazole for G2/M-arrest as described (Dephoure et al. 2008 Proc Natl Acad Sci USA 105: 10762-10767). Synchronization was confirmed by flow cytometry.
as §5, §6, §7, §8, §9
In order to examine target peptides with cell-cycle-dependent phosphorylation, kinase activities in asynchronously growing HeLa cells were profiled and the profiles were compared with those of cells synchronized in G1/S and G2/M phase using a double-thymidine block and nocodazole arrest, respectively (FIG. 3B).

HEK293 cells [2] = assay: KAYAK of lysates from HEK293 cells pretreated with inhibitors before mitogen stimulation; type: cell-based, human
Procedure: For drug inhibition studies, cells were pretreated with U0126 (5 μM) or Wortmannin (100 nM) for 1 hr prior to hormone stimulation.
as §6
The KAYAK method was applied to measure the effect of pharmacological inhibitors or siRNA-mediated knockdown of kinase pathways after mitogen stimulation (see FIGS. 5A-5D and 8 for data obtained by immunoblotting analysis of cell lysates). […] EGF stimulated cell lysates strongly phosphorylated peptides B6, C6, C11 and G5 and these effects were blocked by pretreating cells with the MEK-specific inhibitor U0126.
In contrast, phosphorylation levels of these peptides were not changed as a result of insulin stimulation. […] PMA activates the MAPK pathway by activating the upstream kinase, PKC (Blenis et al. 1993 Proc Natl Acad Sci USA 90: 5889-5892). Because the observed increase in phosphorylation was reversed by prior treatment of cells with U0126, it was concluded that these peptides were not PKC substrates. Rather they were likely phosphorylated by kinases downstream of the MAPK pathway.
as §3

HEK293 cells [3] = assay: Single-reaction KAYAK of HEK293 cells treated with kinase inhibitors followed by insulin stimulation; type: cell-based, human; conditions: HEK293, inhibitor 30 min then 100 nM insulin 30 min
HEK293 cell lysates [4] = assay: Single-reaction 90-substrate KAYAK assay, HEK293 lysates with or without insulin; type: biochemical, human; conditions: for phosphorylation in response to insulin stimulation: 5 μM each peptide, HEK293 lysate
Procedure: as §4
Alternatively, cells were washed with PBS once and lysed with ice-cold lysis buffer, 10 mM potassium phosphate, pH 7.0, containing 0.5% NP-40, 0.1% Brij 35, 0.1% deoxycholic acid, 1 mM ethylenediaminetetraacetic acid (EDTA), 5 mM ethylene glycol tetraacetic acid (EGTA), 10 mM MgCl2, 50 mM β-glycerophosphate, 1 mM Na3VO4, 2 mM dithiothreitol (DTT) and protease inhibitor cocktail (Complete, Roche Applied Science, Indianapolis, Ind.). Homogenates were centrifuged at 10,000 rpm for 15 min at 4° C., and the supernatant was used as lysate. Protein concentration was quantified by a modified Bradford assay (Pierce).
as §6
Internal standard heavy peptides (5 pmol each) were added as a mixture to the terminated reactions followed by desalting with a solid phase extraction cartridge (SepPak tC18 (50 mg), Waters, Milford, Mass.). Phosphopeptides were enriched as described (Villen et al. 2008 Nat Protoc 3: 1630-1638). […]
For KAYAK analyses, phosphopeptides were dissolved in 5% FA and injected onto a 125-μm-internal diameter fused silica column packed with Magic C18 AQ material (Michrom Bioresources, Auburn, Calif.). Peptides were separated using a two-solvent system: solvent A (0.125% FA and 3% ACN in H2O), solvent B (0.125% FA in ACN) over 32 min gradient, and eluting peptides were directly analyzed using an LTQ-Orbitrap mass spectrometer (Thermo Scientific, San Jose, Calif.) equipped with the electron transfer dissociation option. […]

Row | Molecule | E: changed phosphorylation in EGF stimulated condition (HEK293 cell lysates [1]) | G2/M: changed phosphorylation (HeLa cell lysates) | effect on insulin-stimulated phosphorylation of peptide E11 (HEK293 cells [3]) | phosphorylation in response to insulin stimulation (HEK293 cell lysates [4]) | increase in phosphorylation after EGF (HEK293 cell lysates [1]) [fold] | increase in phosphorylation after insulin (HEK293 cell lysates [1]) [fold] | further results
1 | TKRSGSVYEPPFR (The sequence was designed and synthesized) [C6] | + (A change of more +2 fold and −2 fold is indicated by “+” and “−”, respectively.) | − (A change of more +2 fold and −2 fold is indicated by “+” and “−”, respectively.) |  |  |  |  | phosphorylation by Akt (activated, purified Akt): not significantly phosphorylated; phosphorylation by recombinant RSK1 in vitro (recombinant RSK1): robustly phosphorylate
2 | N#CC(=C(/N)Sc1ccccc1N)/C(C#N)=C(\N)Sc1ccccc1N [U0126] |  |  | blocked |  |  |  | effect on EGF-stimulated phosphorylation of peptides B6, C6, C11 and G5 (HEK293 cells [2]; 5 μM, 1 hr pretreatment, HEK293): blocked; RSK-equivalent activity of lysate, peptide C6 as substrate (HEK293 cells [2]; cells pretreated with U0126 then stimulated with EGF, EGF alone approximately 0.6 ng per μg): 0.2 ng RSK/μg lysate; effect on PMA-induced increase in phosphorylation of RSK peptides (HEK293 cells [2]; prior treatment of cells, HEK293): reversed
3 | RPRAATFPFR (The sequence was designed and synthesized) [A3] | + (A change of more +2 fold and −2 fold is indicated by “+” and “−”, respectively.) |  |  | increased phosphorylation | 2.9 | 4.6 | I: changed phosphorylation in insulin stimulated condition (HEK293 cell lysates [1]; insulin-stimulated compared to starved HEK293 cells): ++ (A change of more than +4 and −4 fold is indicated by “++” and “−−”, respectively.)
4 | RKRLISSVEDPFR (The sequence was designed and synthesized) [E11] | + (A change of more +2 fold and −2 fold is indicated by “+” and “−”, respectively.) | − (A change of more +2 fold and −2 fold is indicated by “+” and “−”, respectively.) |  | increased phosphorylation | 2.3 | 1.7 | increase of phosphorylation rate with insulin (HEK293 cell lysates [4]; HEK293): more than 2 fold
5 | O=c1[nH]c2ccccc2n1C1CCN(Cc2ccc(-c3nc4cc5[nH]cnc5cc4nc3-c3ccccc3)cc2)CC1 [Akt inhibitor VIII] |  |  |  |  |  |  | effect on phosphorylation rate of the A3 peptide (HEK293 cells [3]): decreased
6 | C[S+]([O-])c1ccc(-c2nc(-c3ccncc3)c(-c3ccc(F)cc3)[nH]2)cc1 (stereo not drawn) [SB203580] |  |  | paradoxical upregulation |  |  |  | 
